Test system: MPS IIIA neurons
Test: GABARAPL2 western blot in iPSC-derived cortical neurons treated with CBD
Assay type: cell-based, human
Conditions: CBD 1 μM and 5 μM, cortical neurons from MPS IIIA patients' iPSCs, with or without Bafilomycin A1 200 nM
Procedure: HCNT: human health controls; MPS IIIA: MPS IIIA forebrain neurons.
Cortical neurons differentiated from healthy control and MPS IIIA patients' iPSCs. […] GABARAPL2, a protein which involves in autophagy, was measured in a western blot assay (see FIG. 3).

## Cannabidiol [CBD]
  GABARAPL2 accumulation: decreases

From patent US20260272952A1, “CANNABINOIDS FOR TREATING NEUROINFLAMMATION” (Lundquist Institute for Biomedical Innovation at …, priority 2022, published 2026)
